Experimental data published in patent US6924309B2 (Children, Youth and Women's Health Service Incorporated, priority 1999, dated 2005).

What was measured:
15-LO [1] = biological target: T1, 15-LO (Glycine max, UniProt P08170); test: Effect on 15-LO catalysed oxidation of arachidonic acid; assay type: biochemical, soybean
T1 construct: purchased Sigma Chemical Company
T1 sequence (P08170 1-839): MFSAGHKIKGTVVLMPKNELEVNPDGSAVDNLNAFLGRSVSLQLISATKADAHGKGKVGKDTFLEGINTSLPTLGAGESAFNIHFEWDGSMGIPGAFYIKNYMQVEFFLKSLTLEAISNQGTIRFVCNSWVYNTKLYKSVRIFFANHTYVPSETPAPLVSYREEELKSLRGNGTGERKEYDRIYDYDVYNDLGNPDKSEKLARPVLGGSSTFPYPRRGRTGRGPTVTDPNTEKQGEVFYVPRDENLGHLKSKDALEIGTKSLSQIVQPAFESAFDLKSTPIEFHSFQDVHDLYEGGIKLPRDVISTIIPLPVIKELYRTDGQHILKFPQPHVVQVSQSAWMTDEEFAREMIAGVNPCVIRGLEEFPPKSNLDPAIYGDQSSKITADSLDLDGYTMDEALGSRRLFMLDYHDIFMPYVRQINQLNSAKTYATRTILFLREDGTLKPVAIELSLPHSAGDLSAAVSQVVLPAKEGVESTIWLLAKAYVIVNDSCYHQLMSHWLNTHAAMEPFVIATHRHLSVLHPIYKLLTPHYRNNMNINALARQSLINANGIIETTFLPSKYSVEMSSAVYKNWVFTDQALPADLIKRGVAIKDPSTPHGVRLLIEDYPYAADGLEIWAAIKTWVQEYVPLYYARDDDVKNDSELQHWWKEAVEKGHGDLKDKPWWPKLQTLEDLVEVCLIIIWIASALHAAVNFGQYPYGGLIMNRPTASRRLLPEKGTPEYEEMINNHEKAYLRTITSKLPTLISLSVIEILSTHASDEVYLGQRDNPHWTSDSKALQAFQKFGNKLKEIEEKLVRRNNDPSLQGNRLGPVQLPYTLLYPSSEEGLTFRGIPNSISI

15-LO [2] = biological target: T1, 15-LO; test: 15-LO catalysed oxidation of the nitro compounds (substrate test); assay type: biochemical, soybean; settings: for Substrate for 15-LO: pH 9.0 buffer, UV 234 nm
Description: (§1) Based on this consideration, 5-LO, 12-LO and 15-LO catalysed oxidation of the nitro compounds (4a, 4b, 6a, 6b, 8a and 8b) was investigated. Each of the nitro compounds was treated with 15-LO in pH 9.0 buffer (or 5-LO in pH 6.3 buffer and 12-LO in pH 7.4 buffer), and the formation of 15-hydroperoxy derivatives (or 5-hydroperoxy or 12-hydroperoxy derivatives) over time was monitored by UV spectroscopy at 234 nm.

human neutrophils [3] = test: Neutrophil degranulation: release of vitamin B12 binding protein; assay type: cell-based; settings: 20 μg/ml
Description: (§2) The activation of human neutrophils by nitro compounds was assessed by the ability to stimulate superoxide production (chemiluminescence response) and release of lysosomal enzymes from specific and azurophilic granules. Neutrophils were prepared from whole blood taken from normal healthy volunteers by the rapid-single step procedure^(41). Briefly, blood anticoagulated with heparin was carefully layered on a hypaque-ficoll medium of 1.114 g/ml and centrifuged in swing-out-buckets at 200 g/30 min. The leukocytes were resolved into two bands and the erythrocytes sedimented at the bottom of the tube. The second leukocyte band approximately 0.7 cm from the mononuclear cell containing band at the interface contained neutrophils of >98% purity and >99% viability (trypan blue dye exclusion criteria). The neutrophils were carefully harvested with a pasteur pipette, and washed and resuspended in tissue culture medium. The respiratory burst response of neutrophils was assessed by measuring superoxide production by the lucigenin dependent chemiluminescence assay essentially as described previously^(42). Briefly, 1×10^6 neutrophils (100 μl) in HBSS were treated with the nitro analogues of fatty acids (100 μl), then lucigenin was added and the volume made up. […]

12-LO [4] = biological target: T2, 12-LO (Sus scrofa, UniProt P16469); test: Effect on 12-LO catalysed oxidation of arachidonic acid; assay type: biochemical, porcine
T2 construct: purchased Cayman Chemical Company
T2 sequence (P16469 1-663): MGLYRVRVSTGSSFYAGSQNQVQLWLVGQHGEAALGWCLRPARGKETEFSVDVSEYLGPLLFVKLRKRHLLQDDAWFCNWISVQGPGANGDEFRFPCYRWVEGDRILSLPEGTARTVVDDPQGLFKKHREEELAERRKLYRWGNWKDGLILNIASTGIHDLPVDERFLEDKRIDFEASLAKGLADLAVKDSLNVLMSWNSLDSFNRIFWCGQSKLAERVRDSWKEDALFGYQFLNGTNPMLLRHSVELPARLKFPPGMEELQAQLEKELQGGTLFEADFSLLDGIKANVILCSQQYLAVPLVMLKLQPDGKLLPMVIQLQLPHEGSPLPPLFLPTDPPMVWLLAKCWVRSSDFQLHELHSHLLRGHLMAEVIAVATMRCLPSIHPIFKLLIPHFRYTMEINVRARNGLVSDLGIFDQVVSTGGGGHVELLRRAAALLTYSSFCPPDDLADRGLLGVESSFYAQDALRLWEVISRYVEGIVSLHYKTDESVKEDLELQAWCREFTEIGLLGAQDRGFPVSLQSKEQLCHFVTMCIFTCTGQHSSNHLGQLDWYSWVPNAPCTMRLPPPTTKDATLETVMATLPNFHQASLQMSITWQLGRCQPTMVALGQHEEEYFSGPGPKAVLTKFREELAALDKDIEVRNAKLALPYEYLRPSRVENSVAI

12-LO [5] = biological target: T2, 12-LO; test: 12-LO catalysed oxidation of the nitro compounds (substrate test); assay type: biochemical, porcine; settings: pH 7.4 buffer, UV 234 nm
Description: as §1

human neutrophils [6] = test: Neutrophil degranulation: release of β-glucuronidase; assay type: cell-based; settings: 20 μg/ml
Description: as §2

5-LO [7] = test: Effect on 5-LO catalysed oxidation of arachidonic acid; assay type: biochemical
5-LO [8] = test: 5-LO catalysed oxidation of the nitro compounds (substrate test); assay type: biochemical; settings: pH 6.3 buffer, UV 234 nm
Description: as §1

[9] = listed as (all-Z)-4-nitrotricosa-8,11,14,17-tetraenoic acid

What does the source list for CCCCC/C=C\C/C=C\C/C=C\C/C=C\CCCC(CCC(=O)O)[N+](=O)[O-] (stereo not shown) [Lx7, (a11-Z)-4-Nitrotricosa-8,11,14,17-tetraenoic acid]?
Effect on 15-LO catalysed oxidation of AA (15-LO [1]): Substrate; Vmax for 15-LO catalysed oxidation of the compound (15-LO [2]; Lineweaver Burke): Vmax = 24.48 μM/min; Vmax for 15-LO catalysed oxidation of the compound (15-LO [2]; Lineweaver Burke, listed as 6b): 24.48 µM/min; Km (15-LO [2]; Lineweaver Burke, read-out: Km for 15-LO catalysed oxidation of the compound): 8.4 µM; Substrate for 15-LO (15-LO [2]; listed as 6b): substrate; Substrate for 15-LO (15-LO [2]; [9]): good substrate; Release of vitamin B12 binding protein (specific granule marker) (human neutrophils [3]): as potent as 20:4n-6 and 22:6n-3; Effect on 12-LO catalysed oxidation of AA (12-LO [4]): Substrate; Substrate for 12-LO (12-LO [5]; listed as 6b): substrate; Substrate for 12-LO (12-LO [5]; [9]): good substrate; Release of β-glucuronidase (azurophilic granule marker) (human neutrophils [6]): as potent as 20:4n-6 and 22:6n-3; Effect on 5-LO catalysed oxidation of AA (5-LO [7]): Activatory; Substrate for 5-LO (5-LO [8]): not for 5-LO
